Test results taken from patent US9486471B2, “Combination therapy for the treatment of cancer” (McMaster University, priority 2012, dated 2016).

Columns and labels:
[1] = system: neoplastic hPSCs (v1H9-Oct4-GFP); assay: Flow cytometry of Oct4 in neoplastic hPSCs; type: cell-based, human
[2] = system: CD14+ cells in primary AML; assay: Flow cytometry frequency of CD14+ cells in primary AML; type: cell-based, human; conditions: 10 μM, 72 h; control 100%
[3] = system: normal HSCs and progenitors; assay: Methocellulose colony formation of normal HSCs (Example 2); type: cell-based, human; conditions: 10 μM
Description: Normal HSCs and progenitors were sourced from either mobilized peripheral blood or umbilical cord blood of health patients. Primary AML cells were taken from patients diagnosed with AML. Both normal HSCs and primary AML cells were cultured under standard in vitro methocellulose assay conditions (see http://www.stemcell.com/en/Products/All-Products/MethoCult-H4434-Classic.aspx as well as Clinton Campbell et al. The human stem cell hierarchy is defined by a functional dependence on Mcl-1 for self-renewal capacity. Blood 116 (9) 1433-1442 (Jun. 4, 2010), hereby incorporated by reference) for at least 14 days before the number of colonies were recorded.

[4] = system: AML-OCI2 and AML-OCI3 cell lines; assay: Volumetric cell counting of AML cell lines treated with DR antagonists and agonists; type: cell-based, human; conditions: 72 h, serum-free conditions
Description: AML/HPSC Cell Culture. AML cell lines, namely, OCI-AML2 (M4), OCI-AML3 (M4), HL-60 (M2) and MV-4-11(M5) were cultured in RPMI (Gibco) supplemented with 5% heated-inactivated FBS (HyClone). For DR agonist studies with R(+)-7-Hydroxy-DPAT hydrobromide (Sigma), serum-free conditions were employed instead due to the prevalence of dopamine in FBS (Little et al., 2002).
Volumetric Cell Counting. The number of AML-OCI2 and AML-OCI3 cells present after 72 h treatment with DR antagonists (FIG. 16b) and agonist (FIG. 16c-d) were counted by measuring the number of events within a fixed volume following the grating strategy defined by forward scatter and side scatter clustering, 7AAD− and Hoechst+.
Due to the bioavailability of dopamine in fetal bovine serum (FBS) (Little et al., 2002), serum-free conditions were employed to assess the role of DRs in AML.

[5] = system: v1H9-Oct4-GFP neoplastic hPSC; assay: Chemical screening of neoplastic hPSC reporter line (GFP / Hoechst, loss of pluripotency); type: cell-based, human
Description: In Vitro Culture Platform for Normal and Neoplastic hPSCs. Chemical screens involved v1H9-Oct4-GFP cells seeded at 5,000 cells per well in mouse embryonic fibroblast conditioned media (MEFCM) supplemented with 8 ng/ml bFGF. 24 hours later the media was exchanged for MEFCM with compounds at 10 μM and 0.1% DMSO, 0.1% DMSO (−BMP4) or 100 ng/ml of BMP4 and 0.1% DMSO (+BMP4) for 48 hours before being exchanged with fresh media with compound for a further 24 h (total compound treatment time 72 h) prior to being fixed and prepared for automated imaging and plate reader analysis. Confluent H9 & fibroblast-derived iPSC were seeded at 10,000 cells per well in MEFCM supplemented with 8 ng/ml bFGF. 24 hours later the cells were treated with compounds at 10 μM and 0.1% DMSO, 0.1% DMSO (−BMP4) or 100 ng/ml of BMP4 and 0.1% DMSO (+BMP4). Fresh MEFCM supplemented with compounds was exchanged daily for 5 days. On day 5, hPSC's were fixed and prepared for automated imaging and plate reader analysis. See supplementary experimental procedures for further details.
Imaging Neoplastic hPSC. Cells were fixed in 2% paraformaldehyde and stained with 10 μg/mL Hoechst 33342 (Invitrogen) with a Combi Multidrop Dispenser (Thermo). For experiments that involved Oct4 immunocytochemistry, a monoclonal antibody for Oct4 (BD) was used along with an Alexa-Fluor-647 secondary (Invitrogen). Immunocytochemical staining was performed by a Janus automated liquid handler (Perkin Elmer). Images were acquired at 10× N.A with an Arrayscan HCS VTI Reader (Cellomics) by means of epi-fluorescence illumination and standard filter sets.
Image Analysis. Image analysis was performed using custom scripts in Acapella software (Perkin Elmer). Nuclear objects were segmented from the Hoechst signal. For neoplastic cell lines, object intensity analysis was performed on GFP positive cells only. For normal cell lines, the fraction of Alexa-Fluor-647-positive cells was quantified. Images and well-level data were stored and analysed in a Columbus Database (Perkin Elmer) and further data analysis, compounds registration and hit identification in ActivityBase (IDBS).
These Collections have been previously scrutinized in numerous other mammalian cell lines (Diallo et al., 2010; Shoemaker, 2006).

[6] = system: HL-60, MV4-11 and OCI-AML3 leukemic cell lines; assay: Normalized cell number of leukemic cell lines after 72 h incubation (Examples 1, 3); type: cell-based, human
Description: All three lines are leukemic cell lines. […] Each condition had three replicates.
The dopamine receptor antagonist and phenothiazine-related compound chlorpromazine was also investigated for effects on the AML cell lines HL-60, MV4-11 and OCI-AML3. Testing was performed as set out in Example 1.

[7] = system: differentiation-associated genes in neoplastic hPSCs; assay: TaqMan Low-Density Array-qPCR of differentiation genes; type: cell-based, human; conditions: treated neoplastic hPSCs; >2 fold increase
Description: Gene Expression Analysis. Cells in specific conditions were collected and RNA was extracted by using RNeasy kit (Qiagen), complementary DNA (cDNA) generation by using SuperScript III® cDNA synthesis kit (Invitrogen), pre-amplification and TaqMan® array reaction (Applied Biosystems) were performed according to manufacturer's instructions. The gene expression profile for each treated cell population was analyzed using TaqMan® Stem Cell Pluripotency Array Card on ViiA 7 Real-Time PCR System (Applied Biosystems). Each reaction sample was dispensed into loading wells on the array card and centrifuged twice at 336×g for 1 min each time, sealed, and placed in the thermal cycler. The following cycling conditions were used for all array card applications: 45° C. for 10 min, 94° C. for 10 min, and 40 cycles of 94° C. for 30 s followed by 60° C. for 1 min. Array data were normalized to 18S RNA and GAPDH and comparisons were performed using data analysis 2.0 software (Applied Biosystems).

[8] = system: AML cell lines HL-60, OCI-AML2 and OCI-AML3
Description: All three lines are leukemic cell lines. HL-60 was derived from promyelocytic AML whereas MV 4-11 and OCI-AML3 are representative of AML. Each compound was incubated with the cells for 72 h. The control was DMSO (ie the vehicle used for the compound) for 72 h. Each condition had three replicates.
A series of dopamine receptor agonists, D3-antagonists, DR1 & 5-antagonists and multi-receptor antagonists were tested for cytotoxicity against three AML cell lines HL-60, OCI-AML2 and OCI-AML3. Testing was performed as set out in Example 1.

## CSc1ccc2c(c1)N(CCC1CCCCN1C)c1ccccc1S2 (racemic) [thioridazine, 10-{2-[(RS)-1-Methylpiperidin-2-yl]ethyl}-2-methylsulfanylphenothiazine]
[1]
  cell number: reductions
  levels of Oct4: reductions
[2]
  normalized frequency of CD14+ cells: 20%
[3]; HSCs
  cell pellets of CFU colonies: pelleted cells are still visible
[3]; DMSO control about 100, at least 14 days
  colony forming potential of normal HSCs: about 66 total colonies
[4]
  number of AML cells: reduced the number of AML cells
[5]; 2446 compound screen, reduced mean GFP intensity and cell count
  hit in extended screen (loss of pluripotency): hits
[5]; Homo sapiens, 10 μM, 590 compound screen, read-out: Hoechst % residual activity (% RA)
  activity at 10 µM: > 30%
[6]; 0.1 μM
  normalized cell number: little effect
[6]; 1 μM
  normalized cell number: little effect
[6]; 10 μM
  normalized cell number / toxicity: reduced to almost zero
[7]
  upregulated differentiation-associated genes: 21 of 50
[8]
  cytotoxicity of AML cell lines: significant effect
[8]; 72 h, relative to control
  cell count: eradicate the AML cell lines
